For the assay, the system named is IL-6. Nature of the assay: Example 8 main study Luminex, LPS hPBMCs: IL-6. It is filed as cell-based, human. As to conditions: for LPS-induced IL-6 (in words): at as low as 5 μM, LPS 5 ug/mL 24 hrs. As for the experimental part: Human PBMCs were pretreated with YY-101, YDE-011, YDE-043 or reference compound; Xiidra® at various concentration (ranging from […] to 500 nM) for 2 h before stimulation. An equal volume of 0.5% DMSO was used as a vehicle control. Then, the cells were treated with LPS at 5 ug/ml, which was selected based on the pilot study. The supernatants from treated cells were harvested at 24 h and placed in a 96 well for Luminex cytokine & chemokine profiling using a Luminex 200 multiplex assay (Luminex; R&D system, USA).
The main study arm with triplicate wells per group in a 24-well plate: • 1. Blank • 2. PBMC: 0.5% DMSO • 3. PBMC+LPS (5 ug/ml) • 4. PBMC+YY-101 500 nM • 5. PBMC+YY-101 50 nM • 6. PBMC+YY-101 5 nM • 7. PBMC+YY-101 0.5 nM • 8. PBMC+LPS (5 ug/ml)+Xiidra® 500 nM • 9. PBMC+LPS (5 ug/ml)+Xiidra® 50 nM • 10. PBMC+LPS (5 ug/ml)+Xiidra® 5 nM • 11. PBMC+LPS (5 ug/ml)+Xiidra® 0.5 nM • 12. PBMC+LPS (5 ug/ml)+Xiidra® 0.05 nM • 13. PBMC+LPS (5 ug/ml)+Xiidra® 0.005 nM • 14. PBMC+LPS (5 ug/ml)+YY-101 500 nM • 15. PBMC+LPS (5 ug/ml)+YY-101 50 nM • 16. PBMC+LPS (5 ug/ml)+YY-101 5 nM • 17. PBMC+LPS (5 ug/ml)+YY-101 0.5 nM • 18. PBMC+LPS (5 ug/ml)+YY-101 0.05 nM • 19. PBMC+LPS (5 ug/ml)+YY-101 0.005 nM • 20. PBMC+LPS (5 ug/ml)+YDE-011 500 nM • 21. PBMC+LPS (5 ug/ml)+YDE-011 50 nM • 22. PBMC+LPS (5 ug/ml)+YDE-011 5 nM • 23. PBMC+LPS (5 ug/ml)+YDE-011 0.5 nM • 24. PBMC+LPS (5 ug/ml)+YDE-011 0.05 nM • 25. PBMC+LPS (5 ug/ml)+YDE-011 0.005 nM • 26. PBMC+LPS (5 ug/ml)+YDE-043 500 nM • 27. PBMC+LPS (5 ug/ml)+YDE-043 50 nM • 28. PBMC+LPS (5 ug/ml)+YDE-043 5 nM • 29. PBMC+LPS (5 ug/ml)+YDE-043 0.5 nM • 30. PBMC+LPS (5 ug/ml)+YDE-043 0.05 nM • 31. PBMC+LPS (5 ug/ml)+YDE-043 0.005 nM
Multiplex assay was used to measure 30 cytokines and chemokines. The 1:200 diluted cell supernatant and serial dilution of the standard were dispensed into a 96 well plate at 50 ul/well. Then, the pre-mixed cocktail of antibody-coated magnetic beads was dispensed at 50 ul/well and incubated at room temperature for 2 h in a horizontal orbital microplate shaker at 800±500 rpm. The beads were washed using a magnetic device to prevent loss. The biotin-antibody was dispensed in 50 ul of each well and incubated at room temperature for 1 h in a shaker at 800±500 rpm. After washing, streptavidin-PE was added at 50 ul/well and incubated at room temperature for 30 min in a shaker under the same conditions. Finally, after washing, wash buffer (100 ul/well) was added to the plate and incubated in a shaker for 2 min. The Luminex™ 200 setting were set according to the manufacturer's protocol. The data was calculated with a standard five-parameter logistic nonlinear regression analysis of the data (xPonent software 4.2, USA). Results were presented as concentration (ng/ml or pg/ml).

The mark [1] stands for this setting: PBMC + LPS(5 ug/ml) + test article 0.005 nM.
[2] abbreviates: PBMC + LPS(5 ug/ml) + test article 0.005 nM, single replicates (1st, 2nd, 3rd).
Where [3] appears, read: PBMC + LPS(5 ug/ml) + test article 0.05 nM.
Where [4] appears, read: PBMC + LPS(5 ug/ml) + test article 0.05 nM, single replicates (1st, 2nd, 3rd).
Where [5] appears, read: PBMC + LPS(5 ug/ml) + test article 0.5 nM.
Setting [6] is: PBMC + LPS(5 ug/ml) + test article 0.5 nM, single replicates (1st, 2nd, 3rd).
The mark [7] stands for this setting: PBMC + LPS(5 ug/ml) + test article 5 nM.
Setting [8] is: PBMC + LPS(5 ug/ml) + test article 5 nM, single replicates (1st, 2nd, 3rd).
Setting [9] is: PBMC + LPS(5 ug/ml) + test article 50 nM.
Setting [10] is: PBMC + LPS(5 ug/ml) + test article 50 nM, single replicates (1st, 2nd, 3rd).
[11] abbreviates: PBMC + LPS(5 ug/ml) + test article 500 nM.
[12] abbreviates: PBMC + LPS(5 ug/ml) + test article 500 nM, single replicates (1st, 2nd, 3rd).

We go through three molecules from US20230146455A1, “TREATMENT OF INFLAMMATORY DISEASES WITH PEPTIDES AND PHARMACEUTICAL COMPOSITIONS” (Yuyu Pharma, Inc., priority 2020, published 2023).

Several values for one entry are separate records, joined by “and”; a condition that tells them apart may be missing. Equal values may be shown once. Where a SMILES comes first, the peptide text is derived from it. [ ]: non-standard residue; d: D form. Hyp = O=C(O)[C@@H]1C[C@@H](O)CN1 Where only a bound is given, the exact number is not on record here.

As to `CC(C)C[C@H](NC(=O)CNC(=O)[C@H](CC(C)C)NC(=O)[C@H](CCC(N)=O)NC(=O)CNC(=O)[C@@H]1C[C@@H](O)CN1)C(=O)N[C@@H](C)C(=O)NCC(=O)N1CCC[C@H]1C(=O)N[C@@H](CCCCN)C(=O)O` [YDE-011] (H-[Hyp]GQLGLAGPK-OH), the “LPS-induced IL-6 (in words)” value was “significantly reduced”. In addition, the “IL-6 Concentration, Mean” value under setting [1] is 16114.6 pg/mL. Also, the “IL-6 Concentration” value under setting [2] was 16843.8 pg/mL and 15250.9 pg/mL and 16249.2 pg/mL. Moreover, the “IL-6 Concentration, Mean” value under setting [3] came to 18589.3 pg/mL. Further, under setting [4], the “IL-6 Concentration” value is 18843.4 pg/mL and 18343.3 pg/mL and 18581.4 pg/mL. In addition, under setting [5], the “IL-6 Concentration, Mean” value is 15456.8 pg/mL. Further, the “IL-6 Concentration” value under setting [6] is 15322.2 pg/mL and 15654.9 pg/mL and 15393.5 pg/mL. The “IL-6 Concentration, Mean” value under setting [7] was found to be 13541.9 pg/mL. Further, under setting [8], the “IL-6 Concentration” value is 12094.3 pg/mL and 12947.9 pg/mL and 15583.6 pg/mL. Also, under setting [9], the “IL-6 Concentration, Mean” value was found to be 14621.7 pg/mL. Further, under setting [10], the “IL-6 Concentration” value is 17248.3 pg/mL and 9892.0 pg/mL and 16724.9 pg/mL. The “IL-6 Concentration, Mean” value under setting [11] worked out at 14568.3 pg/mL. Further, the “IL-6 Concentration” value under setting [12] is 19367.5 pg/mL and 9383.5 pg/mL and 14953.9 pg/mL.

For the molecule `CC(C)C[C@H](NC(=O)[C@H](CCC(N)=O)NC(=O)CNC(=O)[C@@H]1C[C@@H](O)CN1)C(=O)NCC(=O)O` [YDE-043] (H-[Hyp]GQLG-OH; N-terminus and C-terminus assumed), the “LPS-induced IL-6 (in words)” value is recorded as “significantly reduced”. Further, the “IL-6 Concentration, Mean” value under setting [1] was found to be 17678.1 pg/mL. Moreover, the “IL-6 Concentration” value under setting [2] was 15726.2 pg/mL and 16772.5 pg/mL and 20535.6 pg/mL. Moreover, the “IL-6 Concentration, Mean” value under setting [3] was found to be 14253.4 pg/mL. In addition, the “IL-6 Concentration” value under setting [4] was 13386.9 pg/mL and 14716.3 pg/mL and 14657.0 pg/mL. The “IL-6 Concentration, Mean” value under setting [5] was 14811.5 pg/mL. The “IL-6 Concentration” value under setting [6] is 15322.2 pg/mL and 15084.6 pg/mL and 14027.7 pg/mL. Also, the “IL-6 Concentration, Mean” value under setting [7] was determined as 16507.0 pg/mL. The “IL-6 Concentration” value under setting [8] was 16380.0 pg/mL and 17224.5 pg/mL and 15916.4 pg/mL. Besides, the “IL-6 Concentration, Mean” value under setting [9] amounted to 16067.3 pg/mL. Also, under setting [10], the “IL-6 Concentration” value was 16962.8 pg/mL and 16570.3 pg/mL and 14668.8 pg/mL. In addition, under setting [11], the “IL-6 Concentration, Mean” value worked out at 14209.8 pg/mL. For the same molecule, the “IL-6 Concentration” value under setting [12] is 13873.4 pg/ml (2×) and 14882.6 pg/ml.

For `CC(C)C[C@H](NC(=O)CNC(=O)[C@H](CC(=O)O)NC(=O)[C@H](CCC(N)=O)NC(=O)CNC(=O)[C@@H]1C[C@@H](O)CN1)C(=O)N[C@@H](C)C(=O)NCC(=O)N1CCC[C@H]1C(=O)N[C@@H](CCCCN)C(=O)O` [YY-101] (H-[Hyp]GQDGLAGPK-OH; N-terminus and C-terminus assumed), the “LPS-induced IL-6 (in words)” value was “significantly reduced”. The “IL-6 Concentration, Mean” value under setting [1] came to 18061.6 pg/mL. Besides, under setting [2], the “IL-6 Concentration” value is 18760.0 pg/mL and 17676.7 pg/mL and 17748.1 pg/mL. For the same molecule, the “IL-6 Concentration, Mean” value under setting [3] was found to be 18375.1 pg/mL. The “IL-6 Concentration” value under setting [4] was 17605.3 pg/mL and 19105.4 pg/mL and 18414.7 pg/mL. For the same molecule, the “IL-6 Concentration, Mean” value under setting [5] is 18018.0 pg/mL. Also, the “IL-6 Concentration” value under setting [6] is 18069.4 pg/mL and 17248.3 pg/mL and 18736.2 pg/mL. Besides, the “IL-6 Concentration, Mean” value under setting [7] is 17232.8 pg/mL. For the same molecule, under setting [8], the “IL-6 Concentration” value is 16606.0 pg/mL and 16439.5 pg/mL and 18652.8 pg/mL. Under setting [9], the “IL-6 Concentration, Mean” value came out at 16962.9 pg/mL. Moreover, the “IL-6 Concentration” value under setting [10] is 16320.6 pg/mL and 16689.2 pg/mL and 17879.0 pg/mL. The “IL-6 Concentration, Mean” value under setting [11] worked out at 17165.1 pg/mL. The “IL-6 Concentration” value under setting [12] is 17129.3 pg/mL and 17748.1 pg/mL and 16617.9 pg/mL. The “IL-6 Concentration, Mean” value (PBMC + test article 0.5 nM, no LPS) is 16.2 pg/mL. In addition, the “IL-6 Concentration” value (PBMC + test article 0.5 nM, no LPS, single replicates (1st, 2nd)) is 5.0 pg/mL and 27.3 pg/mL. Also, for the setting “PBMC + test article 5 nM, no LPS”, the “IL-6 Concentration, Mean” value was 5.0 pg/mL. In addition, under “PBMC + test article 5 nM, no LPS, single replicates (1st, 2nd)”, the “IL-6 Concentration” value came to 5.0 pg/mL. Further, under “PBMC + test article 0.05 uM, no LPS”, the “IL-6 Concentration, Mean” value stood at 140.1 pg/mL. Moreover, the “IL-6 Concentration” value (PBMC + test article 0.05 uM, no LPS, single replicates (1st, 2nd)) is 140.1 pg/mL and <2.65 pg/mL. In addition, the “IL-6 Concentration, Mean” value (PBMC + test article 50 nM, no LPS) amounted to 5.0 pg/mL. The “IL-6 Concentration” value (PBMC + test article 50 nM, no LPS, single replicates (1st, 2nd)) was 5.0 pg/mL and <2.65 pg/mL. Where the note is “PBMC + test article 500 nM, no LPS, single replicates (1st, 2nd)”, the “IL-6 Concentration” value was under 2.65 pg/mL.
